Among the data in PubChem BioAssay (NCI) are GI50 and TGI values, retold here.

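Tested at 5 concentrations; 48 h exposure; 96-well plates; endpoints linearly interpolated, else capped at highest concentration. GI50 marks 50% less growth. TGI marks complete inhibition of growth.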 Where only a bound is given, the exact number is not on record here.

One assay concerns HCT-116 colon. Description: NCI anticancer screen, dose series, 48 h.
In the case of `COc1cccc(/C=N/[N-]C(=O)c2ccncc2)c1[O-].[Cu+2].[OH3+]`, the GI50 is 23.8 µM and the TGI turned out to be 93.9 µM.
`COc1c(OC)c(OC)c(C(=O)/C=C/c2ccccc2)c(OC)c1OC` registered a TGI of 18.5 µM.
Still for that read-out and setting: for `COc1ccc(C(O)c2nccn2C)c(OC)c1` (configuration not stated) the value was greater than 100 µM.
In the case of `NS(=O)(=O)c1ccc(N(/C=C/C(=O)C(F)(F)F)CC(=O)c2ccc(Cl)cc2)cc1`, the GI50 was 18.7 µM and the TGI turned out to be 40 µM.
The compound `C1CSCCSCCS1` registered a TGI greater than 100 µM.
For the compound `Cc1cn2c(/C=C3\C(=O)Nc4ccc(O)cc43)c(-c3ccc(Cl)cc3)nc2s1`, the GI50 was 15.6 µM and the TGI is 42.5 µM.
In turn, `CC1=CC(=O)[C@@H](O)[C@]2(C)[C@H]3[C@@]4(O)OC[C@]35[C@H]([C@@H](C)[C@H]4O)[C@@H](O)C(=O)O[C@@H]5C[C@@H]12` showed a TGI of 0.288 µM.
As for `O=C(NC(=O)c1cn(CCNCCO)c(=O)[nH]c1=O)OCc1ccccc1`, the TGI is greater than 100 µM.
Still for that read-out and setting: for `CCC1C2C=CC(CC2)N1S(=O)(=O)c1ccc(C)cc1` (configuration not stated) the value was greater than 100 µM.
As for `COc1ccc2[nH]cc(-c3nc(-c4c[nH]c5ncccc45)cs3)c2c1`, the GI50 was 2.9 µM and the TGI came to 21 µM.
The compound `O=C(N/N=C1/C(=O)N(c2ccc(Cl)cc2Cl)C(=O)C(=O)C1c1nc2ccccc2o1)c1ccccc1O` (configuration not stated) displayed a TGI greater than 100 µM.
Regarding `O=c1cc(-c2ccccc2)[nH]c2c(S)cccc12`, the TGI was greater than 100 µM.
Still for that read-out and setting: in the case of `CC(=O)O[C@H]1CCC2[C@@H]3CCC4=C(O)c5nocc5C[C@]4(C)C3CC[C@@]21C` (some centres not stated) it was greater than 100 µM; in that of `O=C1[C@@H]2C3c4ccccc4C([C@@H]2C(=O)N1c1ccccc1)S3(=O)=O`, greater than 100 µM.
On the same count and under the same terms, for `COc1ccc(/C(=N\NC(=O)C(N)=O)C(c2ccc(OC)cc2)C2(O)C(=O)Nc3c(Cl)cccc32)cc1` (configuration not stated) the value was greater than 100 µM.
As for `COc1ccccc1N1CCN(CCCn2c(=O)c3c(OC)nc(C)cc3c(=O)n2-c2ccccc2)CC1`, the GI50 is greater than 100 µM and the TGI is greater than 100 µM.
With `Cc1ccc(-c2nc3ccc([N+](=O)[O-])cc3[nH]2)cc1`, the TGI was greater than 100 µM.

A further assay concerns SNB-75 CNS. Description: NCI anticancer screen, dose series, 48 h.
`c1ccc(SC2CCSc3ccccc3C2Sc2ccccc2)cc1` (configuration not stated): the TGI is greater than 100 µM.
As for `COC(=O)[C@]1(C)CCCC2(C)C1CC[C@H]1C=C(C)[C@H]3CCC12C3` (some centres not stated), the TGI was greater than 100 µM.
With `O=C(Nc1cc(Cl)ccc1Cl)c1cc2cccc(Cl)c2oc1=O`, the TGI is greater than 100 µM.
For the compound `Cc1ccc(Cn2c(C)nc3c2C(=O)c2ccccc2C3=O)cc1`, the TGI amounted to 36.3 µM.
Take `CC(C)=CCc1cc(O)cc2c1OC(C=C(C)C)C1=C2C(=O)C2=C(NCCS2(=O)=O)C1=O` (configuration not stated): the GI50 was 2.53 µM and the TGI was 4.86 µM.
On to `Cc1c(Cl)cccc1N1C(=O)C(Cl)=C(Cl)C1=O`, for which the TGI was greater than 100 µM.
Consider `COc1cccc(/C=N/[N-]C(=O)c2ccncc2)c1[O-].[Cu+2].[OH3+]`, for which the GI50 is 28.6 µM and the TGI is greater than 100 µM.
Turning to `O=C1NC(=S)NNC12c1ccccc1-c1ccccc12`, the TGI was greater than 10 µM.
Same read-out and setting: for `COc1c(OC)c(OC)c(C(=O)/C=C/c2ccccc2)c(OC)c1OC` the value was 23.1 µM; for `COc1ccc(C(O)c2nccn2C)c(OC)c1` (configuration not stated), greater than 100 µM.
`C1CSCCSCCS1` returned a TGI greater than 100 µM.
With `Cc1cn2c(/C=C3\C(=O)Nc4ccc(O)cc43)c(-c3ccc(Cl)cc3)nc2s1`, the GI50 was 6.27 µM and the TGI worked out at 23.7 µM.
As to `CC1=CC(=O)[C@@H](O)[C@]2(C)[C@H]3[C@@]4(O)OC[C@]35[C@H]([C@@H](C)[C@H]4O)[C@@H](O)C(=O)O[C@@H]5C[C@@H]12`, the TGI is 0.759 µM.
`O=C(NC(=O)c1cn(CCNCCO)c(=O)[nH]c1=O)OCc1ccccc1` registered a TGI greater than 100 µM.
Same read-out and setting: for `CCSc1[nH]c(Nc2nc(-c3ccccc3)n(-c3ccccc3)n2)c(C(N)=O)c1C(N)=O` the value was greater than 10 µM.
For `COc1ccc2[nH]cc(-c3nc(-c4c[nH]c5ncccc45)cs3)c2c1`, the GI50 was 2.31 µM and the TGI was greater than 100 µM.
In turn, `O=C(N/N=C1/C(=O)N(c2ccc(Cl)cc2Cl)C(=O)C(=O)C1c1nc2ccccc2o1)c1ccccc1O` (configuration not stated) showed a TGI greater than 100 µM.
Still for that read-out and setting: for `O=c1cc(-c2ccccc2)[nH]c2c(S)cccc12` the value was greater than 100 µM; for `CC(=O)O[C@H]1CCC2[C@@H]3CCC4=C(O)c5nocc5C[C@]4(C)C3CC[C@@]21C` (some centres not stated), greater than 100 µM.
Same read-out and setting: for `O=C1[C@@H]2C3c4ccccc4C([C@@H]2C(=O)N1c1ccccc1)S3(=O)=O` the value was greater than 100 µM; for `COc1ccc(/C(=N\NC(=O)C(N)=O)C(c2ccc(OC)cc2)C2(O)C(=O)Nc3c(Cl)cccc32)cc1` (configuration not stated), greater than 100 µM.
Consider `COc1ccccc1N1CCN(CCCn2c(=O)c3c(OC)nc(C)cc3c(=O)n2-c2ccccc2)CC1`, for which the GI50 was greater than 100 µM and the TGI was greater than 100 µM.
`Cc1ccc(-c2nc3ccc([N+](=O)[O-])cc3[nH]2)cc1` had a TGI greater than 100 µM.

Another assay deals with A549 NSCLC. Description: NCI anticancer screen, dose series, 48 h.
Compound `c1ccc(SC2CCSc3ccccc3C2Sc2ccccc2)cc1` (configuration not stated) gave a TGI greater than 100 µM.
The same measure, in the same setting: for `COC(=O)[C@]1(C)CCCC2(C)C1CC[C@H]1C=C(C)[C@H]3CCC12C3` (some centres not stated) the value was greater than 100 µM; for `O=C(Nc1cc(Cl)ccc1Cl)c1cc2cccc(Cl)c2oc1=O`, greater than 100 µM; for `Cc1ccc(Cn2c(C)nc3c2C(=O)c2ccccc2C3=O)cc1`, 34.9 µM.
Regarding `CC(C)=CCc1cc(O)cc2c1OC(C=C(C)C)C1=C2C(=O)C2=C(NCCS2(=O)=O)C1=O` (configuration not stated), the GI50 was 3.17 µM and the TGI came out at 6.83 µM.
`Cc1c(Cl)cccc1N1C(=O)C(Cl)=C(Cl)C1=O` gave a TGI greater than 100 µM.
As to `COc1cccc(/C=N/[N-]C(=O)c2ccncc2)c1[O-].[Cu+2].[OH3+]`, the GI50 is 53.7 µM and the TGI is greater than 100 µM.
`O=C1NC(=S)NNC12c1ccccc1-c1ccccc12` yielded a TGI greater than 10 µM.
Compound `COc1c(OC)c(OC)c(C(=O)/C=C/c2ccccc2)c(OC)c1OC` had a TGI of 46.2 µM.
`COc1ccc(C(O)c2nccn2C)c(OC)c1` (configuration not stated) yielded a TGI greater than 100 µM.
As for `NS(=O)(=O)c1ccc(N(/C=C/C(=O)C(F)(F)F)CC(=O)c2ccc(Cl)cc2)cc1`, the GI50 was 49.7 µM and the TGI was greater than 100 µM.
The compound `C1CSCCSCCS1` registered a TGI greater than 100 µM.
Consider `Cc1cn2c(/C=C3\C(=O)Nc4ccc(O)cc43)c(-c3ccc(Cl)cc3)nc2s1`, for which the GI50 was 19.1 µM and the TGI is greater than 100 µM.
